Results on 1 compound are retold here after US20240024403A1, “Compositions and Methods for Managing Weight” (Unigen, Inc., priority 2012, published 2024).

The assay is described as follows: 14-day study in high-fat-diet fed C57BL/6J mice. It counts as in vivo. Conditions: 30 mg/kg daily oral, 14 days. An excerpt: A 14-day study was used to evaluate the effect of Mutamba EtOH extract fraction 84/F6 on body weight gain in high-fat-diet (HFD) fed C57BL/6J mice. Male C57BL/6J mice at the age of 6 weeks were purchased from Charles River Laboratories (Wilmington, MA) and acclimated for one week. On the day 0 (treatment start), body weights were taken for all the mice and randomly assigned to a group of four treatment groups as follows: (1) 8 mice/group received positive control=Alli; (2) 15 mice/group received Mutamba fraction 84/F6; (3) 8 mice/group received vehicle only (0.5% carboxymethyl cellulose) given to HFD control; and (4) 8 mice/group received vehicle only given to untreated normal diet control. Mice received a daily oral dose of Alli at 30 mg/kg and Mutamba 84/F6 at 1 g/kg for 14 days. Once mice received their first respective dose, they were provided ad libitum a 60% kcal high fat-diet, except for the normal diet group. Body weights were taken daily for the duration of study except on weekends. […] Blood glucose levels were measured using the Contour blood glucose monitoring kit (Bayer Health Care). Total triglyceride and cholesterol levels were measured using the CardioChek Analyzer with PTS panel test strips (Polymer Technology System, Inc, Indianapolis, IN).

The structures appear in SMILES notation.

`CCCCCCCCCCC[C@@H](C[C@@H]1OC(=O)[C@H]1CCCCCC)OC(=O)[C@H](CC(C)C)NC=O` [ORI, orlistat]: the “body weight gain vs vehicle treated HFD group” value was “decrease in weight gain only on day 14 of treatment” and the “fasting blood glucose, total cholesterol, triglyceride vs vehicle treated HFD group” value is recorded as “statistically significant higher levels of fasting triglyceride”.
